Series [1] addresses T1, Tyrosine-protein phosphatase non-receptor type 1 (Homo sapiens) (UniProt P18031).
T1 sequence (whole entry): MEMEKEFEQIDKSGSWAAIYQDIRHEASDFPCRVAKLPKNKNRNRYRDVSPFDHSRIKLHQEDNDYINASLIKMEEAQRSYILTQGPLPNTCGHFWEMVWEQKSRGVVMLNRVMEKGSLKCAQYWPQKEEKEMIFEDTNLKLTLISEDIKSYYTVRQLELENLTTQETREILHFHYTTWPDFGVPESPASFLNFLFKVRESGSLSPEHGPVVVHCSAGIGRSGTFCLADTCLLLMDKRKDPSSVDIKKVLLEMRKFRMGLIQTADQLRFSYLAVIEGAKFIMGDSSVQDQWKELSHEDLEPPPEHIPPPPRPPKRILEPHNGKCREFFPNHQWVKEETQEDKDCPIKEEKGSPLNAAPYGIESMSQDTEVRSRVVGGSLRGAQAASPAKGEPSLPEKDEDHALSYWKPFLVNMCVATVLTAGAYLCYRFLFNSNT
Description: Inhibition of human GST-tagged PTP1B catalytic domain assessed as DiFMUP hydrolysis at 10 uM by fluorometric kinetic-based assay.

For series [2], the target named is T2, Tyrosine-protein phosphatase non-receptor type 2 (Homo sapiens) (UniProt P17706).
T2 sequence (whole entry): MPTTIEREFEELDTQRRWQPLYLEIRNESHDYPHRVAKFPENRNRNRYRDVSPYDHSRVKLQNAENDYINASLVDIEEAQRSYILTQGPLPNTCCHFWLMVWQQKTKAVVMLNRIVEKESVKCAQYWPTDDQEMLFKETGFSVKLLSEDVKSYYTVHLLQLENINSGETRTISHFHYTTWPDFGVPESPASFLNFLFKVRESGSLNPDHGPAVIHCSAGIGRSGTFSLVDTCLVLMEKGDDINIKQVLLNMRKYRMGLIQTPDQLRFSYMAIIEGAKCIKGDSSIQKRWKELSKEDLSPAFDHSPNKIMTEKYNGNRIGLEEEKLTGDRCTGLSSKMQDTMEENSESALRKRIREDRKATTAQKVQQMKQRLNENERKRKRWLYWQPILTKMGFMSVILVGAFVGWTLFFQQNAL
Briefly: Inhibition of human GST-tagged TC-PTP catalytic domain assessed as DiFMUP hydrolysis at 10 uM by fluorometric kinetic-based assay.

Series [3] concerns the target T3, Receptor-type tyrosine-protein phosphatase S (Homo sapiens, UniProt Q13332). Briefly: Inhibition of human GST-tagged PTP-sigma D1D2 domain assessed as DiFMUP hydrolysis by fluorometric kinetic-based assay.
For series [4], the target named is T4, Dual specificity protein phosphatase 22 (Homo sapiens) (UniProt Q9NRW4).
T4 sequence (whole entry): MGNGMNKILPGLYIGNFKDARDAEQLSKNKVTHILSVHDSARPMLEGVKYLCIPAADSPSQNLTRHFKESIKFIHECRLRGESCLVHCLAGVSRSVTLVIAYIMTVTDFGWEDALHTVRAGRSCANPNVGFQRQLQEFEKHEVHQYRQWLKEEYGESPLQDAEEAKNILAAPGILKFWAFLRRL
Briefly: Inhibition of human GST-tagged full length MKPX assessed as DiFMUP hydrolysis at 10 uM by fluorometric kinetic-based assay.

Series [5] concerns CHO. Briefly: Cytotoxicity against Chinese hamster CHO cells overexpressing IR assessed as slight reduction in cell viability at >50 uM by xCELLigence system. Format: cell-based, Cricetulus griseus.
The target in series [6] is T5, Tyrosine-protein phosphatase non-receptor type 2 (Homo sapiens, UniProt P17706).
T5 sequence (P17706 whole entry): T2 sequence (whole entry)
Description: Inhibition of human GST-tagged TC-PTP catalytic domain assessed as DiFMUP hydrolysis by fluorometric kinetic-based assay.

The species entered for the next series is Homo sapiens. Briefly: Inhibition of human GST-tagged PRL2 A/S active mutant assessed as DiFMUP hydrolysis at 10 uM by fluorometric kinetic-based assay.
Series [7] addresses T3, Receptor-type tyrosine-protein phosphatase S. Description: Inhibition of human GST-tagged PTP-sigma D1D2 domain assessed as DiFMUP hydrolysis at 10 uM by fluorometric kinetic-based assay.
Series [8] addresses T1, Tyrosine-protein phosphatase non-receptor type 1 (Homo sapiens). Briefly: Mixed inhibition of human GST-tagged PTP1B catalytic domain assessed as rate of DiFMUP hydrolysis by lineweaver-burk plot analysis.
The target of series [9] is T6, Dual specificity protein phosphatase 22 (Homo sapiens, UniProt Q9NRW4).
T6 sequence (Q9NRW4 whole entry): T4 sequence (whole entry)
Briefly: Inhibition of human GST-tagged full length MKPX assessed as DiFMUP hydrolysis by fluorometric kinetic-based assay.

The next series concerns the target T7, Papain (Carica papaya) (UniProt P00784).
T7 sequence (whole entry): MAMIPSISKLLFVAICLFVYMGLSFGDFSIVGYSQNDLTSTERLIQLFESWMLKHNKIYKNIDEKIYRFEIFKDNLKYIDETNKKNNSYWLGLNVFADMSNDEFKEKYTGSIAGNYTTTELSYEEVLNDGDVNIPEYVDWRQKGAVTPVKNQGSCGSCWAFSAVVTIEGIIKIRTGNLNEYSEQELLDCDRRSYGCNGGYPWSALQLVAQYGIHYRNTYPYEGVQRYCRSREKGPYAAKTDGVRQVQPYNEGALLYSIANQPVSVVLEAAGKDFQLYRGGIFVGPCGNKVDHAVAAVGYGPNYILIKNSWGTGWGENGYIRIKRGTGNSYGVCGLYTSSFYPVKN
Briefly: Inhibition of papaya papain assessed as Z-Phe-Arg-pNA hydrolysis at 10 uM by fluorometric kinetic-based assay.

Series [10] concerns CHO. Briefly: Inhibition of PTP1B in Chinese hamster CHO cells overexpressing IR assessed as insulin-stimulated IR phosphorylation treated for 3 hrs prior to insulin stimulation for 15 mins by western blot analysis. It is filed as cell-based. Particulars: Cricetulus griseus. On the technique in general: Immunoblotting shows a protein as a band on a membrane.
The target in series [11] is Receptor-type tyrosine-protein phosphatase F (Homo sapiens) (UniProt P10586). Briefly: Inhibition of human GST-tagged PTP-LAR D1D2 domain assessed as DiFMUP hydrolysis by fluorometric kinetic-based assay.
Chain of Receptor-type tyrosine-protein phosphatase F (Homo sapiens) (P10586 whole entry, the tested form may be a part): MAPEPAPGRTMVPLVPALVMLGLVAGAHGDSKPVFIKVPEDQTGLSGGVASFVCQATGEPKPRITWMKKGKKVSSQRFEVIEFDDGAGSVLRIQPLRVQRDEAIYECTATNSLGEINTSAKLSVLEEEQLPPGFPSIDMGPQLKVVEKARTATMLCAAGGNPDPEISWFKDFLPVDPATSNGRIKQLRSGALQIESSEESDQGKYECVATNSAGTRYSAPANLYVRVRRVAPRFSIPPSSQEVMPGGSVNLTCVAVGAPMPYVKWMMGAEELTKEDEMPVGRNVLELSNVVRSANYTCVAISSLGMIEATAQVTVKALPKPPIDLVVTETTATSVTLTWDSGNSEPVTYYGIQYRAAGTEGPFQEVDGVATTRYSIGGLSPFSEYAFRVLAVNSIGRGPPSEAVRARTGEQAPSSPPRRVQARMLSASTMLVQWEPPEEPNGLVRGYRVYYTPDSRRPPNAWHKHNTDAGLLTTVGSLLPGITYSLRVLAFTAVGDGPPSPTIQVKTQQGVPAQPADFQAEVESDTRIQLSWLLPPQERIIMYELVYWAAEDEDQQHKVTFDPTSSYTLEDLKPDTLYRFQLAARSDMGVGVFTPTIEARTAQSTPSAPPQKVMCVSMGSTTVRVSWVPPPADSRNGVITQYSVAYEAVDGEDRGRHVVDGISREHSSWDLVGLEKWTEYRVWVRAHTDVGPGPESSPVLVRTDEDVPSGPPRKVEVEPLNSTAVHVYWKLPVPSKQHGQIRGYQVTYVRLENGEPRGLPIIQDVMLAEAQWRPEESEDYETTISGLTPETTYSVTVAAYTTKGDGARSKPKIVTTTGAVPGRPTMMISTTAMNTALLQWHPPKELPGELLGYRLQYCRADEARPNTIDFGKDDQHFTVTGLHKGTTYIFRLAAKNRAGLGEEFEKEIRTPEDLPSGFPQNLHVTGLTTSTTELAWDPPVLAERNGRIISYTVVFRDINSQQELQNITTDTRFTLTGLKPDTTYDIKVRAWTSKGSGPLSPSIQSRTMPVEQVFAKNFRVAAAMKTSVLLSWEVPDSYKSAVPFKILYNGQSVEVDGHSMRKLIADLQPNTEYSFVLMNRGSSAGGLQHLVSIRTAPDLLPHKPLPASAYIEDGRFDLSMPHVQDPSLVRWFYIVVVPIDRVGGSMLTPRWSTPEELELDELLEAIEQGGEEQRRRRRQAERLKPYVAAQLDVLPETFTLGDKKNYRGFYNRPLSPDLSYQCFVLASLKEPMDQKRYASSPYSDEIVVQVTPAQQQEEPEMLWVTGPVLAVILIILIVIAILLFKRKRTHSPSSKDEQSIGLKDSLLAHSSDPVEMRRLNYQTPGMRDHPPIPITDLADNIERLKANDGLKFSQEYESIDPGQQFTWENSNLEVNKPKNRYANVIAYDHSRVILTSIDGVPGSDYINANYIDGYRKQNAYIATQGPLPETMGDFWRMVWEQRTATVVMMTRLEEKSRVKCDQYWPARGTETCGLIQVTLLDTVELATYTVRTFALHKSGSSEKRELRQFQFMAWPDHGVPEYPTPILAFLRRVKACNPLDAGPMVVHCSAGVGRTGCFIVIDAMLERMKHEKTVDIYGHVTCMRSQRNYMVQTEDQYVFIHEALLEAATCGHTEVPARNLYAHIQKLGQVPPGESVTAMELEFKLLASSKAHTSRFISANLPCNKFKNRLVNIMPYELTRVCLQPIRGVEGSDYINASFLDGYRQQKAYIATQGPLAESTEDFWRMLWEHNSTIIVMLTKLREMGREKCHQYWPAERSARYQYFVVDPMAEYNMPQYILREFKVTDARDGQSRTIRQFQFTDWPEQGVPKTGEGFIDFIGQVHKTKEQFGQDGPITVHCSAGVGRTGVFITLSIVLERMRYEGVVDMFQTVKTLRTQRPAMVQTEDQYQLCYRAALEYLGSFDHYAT
The target is the same in series [12]. Briefly: Inhibition of human GST-tagged PTP-LAR D1D2 domain assessed as DiFMUP hydrolysis at 10 uM by fluorometric kinetic-based assay.
Another series concerns the target T8, Papain (Carica papaya, UniProt P00784).
T8 sequence (P00784 whole entry): T7 sequence (whole entry)
Description: Inhibition of papaya papain assessed as Z-Phe-Arg-pNA hydrolysis by fluorometric kinetic-based assay.

The target of series [13] is T9, Tyrosine-protein phosphatase non-receptor type 1 (Homo sapiens, UniProt P18031).
T9 sequence (P18031 whole entry): T1 sequence (whole entry)
Briefly: Inhibition of human GST-tagged PTP1B catalytic domain assessed as DiFMUP hydrolysis by fluorometric kinetic-based assay.

The nature of series [14]: Inhibition of human GST-tagged PRL2 A/S active mutant assessed as DiFMUP hydrolysis by fluorometric kinetic-based assay.
Series [15] relates to CHO. Briefly: Cytotoxicity against Chinese hamster CHO cells overexpressing IR assessed as cell proliferation rate at 0.4 to 10 uM by xCELLigence system. Format: cell-based, Cricetulus griseus.
In series [16] the target is T9, Tyrosine-protein phosphatase non-receptor type 1. Description: Competitive inhibition of human GST-tagged PTP1B catalytic domain assessed as rate of DiFMUP hydrolysis by lineweaver-burk plot analysis.
Series [17] has as its system CHO. Briefly: Cytotoxicity against Chinese hamster CHO cells overexpressing IR assessed as cell proliferation rate at 50 uM by xCELLigence system. Format: cell-based, Cricetulus griseus.
For series [18], the target named is T5, Tyrosine-protein phosphatase non-receptor type 2. Briefly: Inhibition of TC-PTP (unknown origin) expressed in Escherichia coli cells assessed as p-nitrophenyl phosphate hydrolysis by spectrophotometric analysis.
Series [19] addresses T9, Tyrosine-protein phosphatase non-receptor type 1. Description: Inhibition of PTP1B (unknown origin) expressed in Escherichia coli cells assessed as p-nitrophenyl phosphate hydrolysis by spectrophotometric analysis.

The structures appear in SMILES notation. Active and inactive are the calls of the source. No cut-off for these calls is given here.

T3 sequence (Q13332 whole entry, the tested form may be a part): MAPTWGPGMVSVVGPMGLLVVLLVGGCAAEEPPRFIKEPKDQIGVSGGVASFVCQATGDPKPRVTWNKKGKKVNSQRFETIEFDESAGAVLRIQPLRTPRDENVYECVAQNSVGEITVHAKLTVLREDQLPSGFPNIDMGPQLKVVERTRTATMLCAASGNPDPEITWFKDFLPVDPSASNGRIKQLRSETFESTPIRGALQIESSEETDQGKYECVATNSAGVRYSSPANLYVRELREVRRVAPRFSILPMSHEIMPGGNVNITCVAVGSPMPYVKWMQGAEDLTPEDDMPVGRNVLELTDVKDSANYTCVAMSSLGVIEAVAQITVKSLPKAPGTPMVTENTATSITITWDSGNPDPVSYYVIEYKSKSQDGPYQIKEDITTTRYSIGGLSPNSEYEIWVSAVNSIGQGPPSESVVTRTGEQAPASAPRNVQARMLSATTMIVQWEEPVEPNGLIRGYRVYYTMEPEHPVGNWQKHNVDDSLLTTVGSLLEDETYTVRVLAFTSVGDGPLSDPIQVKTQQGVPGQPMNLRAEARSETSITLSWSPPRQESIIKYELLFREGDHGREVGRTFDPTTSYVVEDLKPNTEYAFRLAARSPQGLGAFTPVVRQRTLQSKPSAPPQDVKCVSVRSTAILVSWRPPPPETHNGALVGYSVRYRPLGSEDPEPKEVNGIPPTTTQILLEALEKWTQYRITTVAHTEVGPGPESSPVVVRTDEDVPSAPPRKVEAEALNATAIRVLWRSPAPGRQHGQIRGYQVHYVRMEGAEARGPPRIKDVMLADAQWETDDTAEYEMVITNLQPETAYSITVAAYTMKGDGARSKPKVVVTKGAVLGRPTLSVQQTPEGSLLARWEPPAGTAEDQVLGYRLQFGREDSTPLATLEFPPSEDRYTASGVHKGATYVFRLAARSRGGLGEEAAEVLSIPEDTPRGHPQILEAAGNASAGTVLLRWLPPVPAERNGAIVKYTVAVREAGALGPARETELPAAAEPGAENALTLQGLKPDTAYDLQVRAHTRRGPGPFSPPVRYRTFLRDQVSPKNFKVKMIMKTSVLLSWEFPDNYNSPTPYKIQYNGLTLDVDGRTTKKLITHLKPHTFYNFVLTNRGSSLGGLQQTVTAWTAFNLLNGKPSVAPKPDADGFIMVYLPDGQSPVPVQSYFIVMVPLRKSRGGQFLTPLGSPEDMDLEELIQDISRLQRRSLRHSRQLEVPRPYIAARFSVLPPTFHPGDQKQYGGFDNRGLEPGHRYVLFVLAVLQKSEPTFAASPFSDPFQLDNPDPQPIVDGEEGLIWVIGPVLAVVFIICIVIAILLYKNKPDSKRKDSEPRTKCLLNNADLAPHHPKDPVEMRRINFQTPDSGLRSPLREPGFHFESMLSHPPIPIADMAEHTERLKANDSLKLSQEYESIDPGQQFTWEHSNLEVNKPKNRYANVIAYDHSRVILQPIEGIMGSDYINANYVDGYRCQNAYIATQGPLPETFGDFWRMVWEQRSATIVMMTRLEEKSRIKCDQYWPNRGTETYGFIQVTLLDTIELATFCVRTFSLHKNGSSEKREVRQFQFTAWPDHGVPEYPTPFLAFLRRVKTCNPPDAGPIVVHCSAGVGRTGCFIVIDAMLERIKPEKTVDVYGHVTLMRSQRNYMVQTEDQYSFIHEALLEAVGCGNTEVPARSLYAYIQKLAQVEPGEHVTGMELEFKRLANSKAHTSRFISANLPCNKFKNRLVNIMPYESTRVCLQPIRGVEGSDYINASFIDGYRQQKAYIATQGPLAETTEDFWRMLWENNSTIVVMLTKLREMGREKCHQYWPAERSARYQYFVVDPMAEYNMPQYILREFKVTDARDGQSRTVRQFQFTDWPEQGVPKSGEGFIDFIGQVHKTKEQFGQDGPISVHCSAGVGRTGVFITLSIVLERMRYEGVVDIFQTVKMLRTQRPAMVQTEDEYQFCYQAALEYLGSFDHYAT

Turning to `CN(CC(=O)N(Cc1ccc(C2CCCCC2)cc1)c1ccc(C(=O)O)c(O)c1)S(=O)(=O)c1cccc2cccnc12`, the inhibition (usually the relative decrease from the control value, in per cent) was > 80% in [1], > 80% in series [2], > 80% in [7] and “Dose-dependent effect” in the series on CHO [10]. Also, the IC50 (in general, the concentration at which inhibition is half-maximal) was 4.3 µM in series [3]; 4.8 µM in series [6]; > 10 µM in series [9]; > 10 µM at Papain; 6.2 µM in [13]; > 50 µM in series [14]. Moreover, the inhibition result (in series [4]; in the series filed under Homo sapiens; on Papain (Carica papaya); in [11]; in [12]) was “inactive” in each case. Besides, the Activity result in the series with CHO [5] is “Toxic”; in the series with CHO [15] it was “Non-toxic”. Besides, the inhibition entry in [8] was “Active”.
With `COC(=O)c1cccc(-c2ccc(-c3ccc(CN(C(=O)CN(C)S(=O)(=O)c4ccc(C)cc4)c4ccc(C(=O)O)c(O)c4)cc3)cc2)c1`, the inhibition in [1], in series [2] and in [7] was > 80% each time. In addition, the concentration for half-maximal inhibition (IC50) was 6.3 µM in [3]; 5.6 µM in [6]; > 10 µM in series [9]; > 10 µM on Papain; 4.8 µM in series [13]; > 50 µM in series [14]. For the same molecule, the inhibition entry (in series [4]; in the series filed under Homo sapiens; on Papain (Carica papaya); in series [12]) was “inactive” throughout.
In the case of `CN(CC(=O)N(Cc1ccc(C2CCCCC2)cc1)c1ccc(C(=O)O)c(O)c1)S(=O)(=O)c1cccc2ccccc12`, the inhibition is > 80% in [1], > 80% in series [2], > 80% in [7] and “Dose-dependent effect” in the series on CHO [10]. In addition, in series [16], the Ki (commonly the dissociation constant of the complex between target and ligand, obtained from inhibition or displacement) turned out to be 2.1 µM. Also, the IC50 was 5.2 µM in series [3]; 3.9 µM in series [6]; > 10 µM in series [9]; > 10 µM on Papain; 5.2 µM in series [13]; > 50 µM in series [14]. The inhibition entry (in [4]; in the series listed under Homo sapiens; at Papain (Carica papaya); in series [11]; in [12]) was “inactive” throughout. In addition, the Activity entry in the series with CHO [17] is “Toxic”; with CHO [15], “Non-toxic”.
For the molecule `Cc1ccc(S(=O)(=O)N(C)CC(=O)N(Cc2ccc(-c3ccc(-c4cccc(C#N)c4)cc3)cc2)c2ccc(C(=O)O)c(O)c2)cc1`, the inhibition in [1], in series [2] and in series [7] was > 80% each time. Also, the IC50 in [3] is 6.1 µM; in series [6], 5.1 µM; in [9], > 10 µM; on Papain, > 10 µM; in series [13], 5 µM; in series [14], > 50 µM. The inhibition result (in series [4]; in the series listed under Homo sapiens; at Papain (Carica papaya); in series [12]) was “inactive” each time.
For the molecule `Cc1ccc(S(=O)(=O)N(C)CC(=O)N(Cc2ccc(-c3ccc(-c4cccc(C(N)=O)c4)cc3)cc2)c2ccc(C(=O)O)c(O)c2)cc1`, the inhibition in series [1], in series [2] and in series [7] was > 80% throughout. For the same molecule, the IC50 was 4.6 µM in [3]; 4.4 µM in [6]; > 10 µM in series [9]; > 10 µM at Papain; 4.6 µM in series [13]; > 50 µM in series [14]. In addition, the inhibition result (in series [4]; in the series filed under Homo sapiens; at Papain (Carica papaya); in series [12]) was “inactive” throughout.
Take `O=C(Cn1cc(-c2c(-c3ccccc3)oc3cc(O)c(C(=O)O)cc23)nn1)Nc1ccc(N2CCOCC2)cc1`: the IC50 in [18] came out at 22 µM; in series [19], 19 µM.
As for `CN(C)c1cccc2c(S(=O)(=O)N(C)CC(=O)N(Cc3ccc(C4CCCCC4)cc3)c3ccc(C(=O)O)c(O)c3)cccc12`, the inhibition in series [1] is > 80%; in [2], > 80%; in series [7], > 80%; with CHO [10], “Dose-dependent effect”. Also, the inhibition constant Ki in [16] came out at 4 µM. Also, the IC50 was 3.6 µM in [3]; 5.1 µM in [6]; > 10 µM in series [9]; > 10 µM at Papain; 4.9 µM in series [13]; > 50 µM in series [14]. The inhibition entry (in series [4]; in the series listed under Homo sapiens; on Papain (Carica papaya); in series [11]; in series [12]) was “inactive” throughout. Moreover, the Activity result in the series with CHO [5] is “Toxic”; with CHO [15], “Non-toxic”.

The values are drawn from ChEMBL document CHEMBL3217656, “Identification of a potent salicylic acid-based inhibitor of tyrosine phosphatase PTP1B” (Medchemcomm, 2013).
